Earlier results in patent US4486414A, “Dolastatins A and B cell growth inhibitory substances” (Arizona Board of Reagents, priority 1983, dated 1984).

How the values were obtained:
[1] = test system: murine P388 lymphocytic leukemia; conditions: intraperitoneal doses of 11 μg/kg/day; cited from earlier work
murine B16 melanoma = conditions: intraperitoneal doses of 11 μg/kg/day; cited from earlier work

## dolastatin 1
[1]
  life extension: 88%
Murine B16 melanoma
  curative response: 30%
